Patent publication US20240228647A1, “OFATUMUMAB FOR TREATING MULTIPLE SCLEROSIS IN ASIAN PATIENTS” (Novartis AG, priority 2021, published 2024)
Marks after values point to notes of the source that are not given here.

How the values were obtained:
patients with RMS [1] = assay: Gd-enhancing T1 lesions per scan, Phase III Studies I and II; type: in vivo, human; conditions: for Gd-enhancing T1 lesions rate reduction (%): vs teriflunomide
Description: (§1) Ofatumumab was investigated in 1882 patients with RMS from two identical Phase III randomized, double-blind, double-dummy, active-comparator controlled, parallel-group, multicenter studies of identical design (Study I and Study II). Patients were randomized to receive either ofatumumab, OMB (20 mg s.c injections every 4 weeks, after an initial loading regimen of 3 injections on Day 1, 7, and 14), or teriflunomide, TER (14 mg p.o. once a day) as active comparator. For brevity, the teriflunomide data are not shown hereinafter.
(§2) The maximum treatment duration for an individual patient was 30 study months (approximately 2.5 years). The two studies included a total of 71 patients of Asian race (36 patients in ofatumumab and 35 patients in teriflunomide treatment groups). This Example also includes the Asian patients data from oncology studies (Study A and Study B), as supportive data, where required.
The number of Gd-enhancing T1 lesions per scan was a key secondary efficacy endpoint in the pivotal Phase III studies.

serum IgG and IgM levels = assay: Serum IgG and IgM levels under long-term ofatumumab treatment; type: in vivo, human
Description: Serum immunoglobulin (Ig) levels can be determined routinely in clinical practice. In the present application serum Ig levels can preferably be determined by immunoturbidimetry. Preferably a Roche cobas® Analyzer was used, especially module c of the cobas® analyser. In a preferred embodiment Ig levels can be determined by using a cobas® c 311 analyzer. It is further preferred that IgG measurements are carried out as described in the cobas® leaflet “IGG-2 Tina-quant IgG Gen.2”, preferably version 11.0 dated 2016-02 and IgM measurements as described in the leaflet “IGM-2 Tina-quant IgM Gen.2”, preferably version 13.0 dated 2018-11.
Serum samples were preferably kept at 2-8° C. before measurement.
Patients were subjected to a long term treatment. Patients received ofatumumab 20 mg sc injections every 4 weeks (after an initial loading regimen of 20 mg sc doses on weeks 0, 1 and 2).

patients with RMS [2] = assay: Annualized rate of new or enlarging T2 lesions, Phase III Studies I and II; type: in vivo, human; conditions: for New or enlarging T2 lesions rate reduction (%): vs teriflunomide
Description: as §1, §2
The annualized rate of new or enlarging T2 lesions was a key secondary efficacy endpoint in the pivotal Phase III studies.

[3] = human, in vivo
patients with RMS [4] = assay: Annualized relapse rate (ARR), confirmed relapses, Phase III Studies I and II; type: in vivo, human; conditions: for ARR (number of relapses/patient years) / Adjusted ARR (9559) / Number of relapses (confirmed): FAS; for ARR rate reduction (%): vs teriflunomide
Description: as §1, §2
ARR was the primary efficacy endpoint in the pivotal Phase III studies. Treatment with ofatumumab and teriflunomide were both associated with relatively low ARRs. in the Asian subgroups, with 4 to 5 confirmed relapses in any of the treatment groups (ARRs of 0.08-0.09) (Table 2).

Substance: ofatumumab [OMB]
- Gd-enhancing lesions/number of scans (lesion rate) (patients with RMS [1]; Asian): (0.019)
- Number of Gd-enhancing lesions (patients with RMS [1]; Asian): 1/54
- Gd-enhancing lesions/number of scans (lesion rate) (patients with RMS [1]; Rest of World): (0.031)
- Number of Gd-enhancing lesions (patients with RMS [1]; Rest of World): 51/1666
- Reduction of mean number of Gd-enhancing T1 lesions per scan compared with teriflunomide (patients with RMS [1]; overall population): 95.8%
- Gd-enhancing T1 lesions rate reduction (%) (patients with RMS [1]; Asian): 93.8/0.022* %
- Gd-enhancing T1 lesions rate reduction (%) (patients with RMS [1]; Rest of World): 95.9/<0.001* %
- IgM levels with longer duration (serum IgG and IgM levels; 20 mg sc every 4 weeks, FIGS. 3 and 4): A reduction in IgM levels
- IgG levels over the long-term follow-up (serum IgG and IgM levels; 20 mg sc every 4 weeks, follow-up of >4 years, FIG. 1): stable
- IgM levels versus lower limit of normal (serum IgG and IgM levels; 20 mg sc every 4 weeks, longer duration, FIGS. 3 and 4): levels remained above the lower limit of normal
- Increase of IgG levels (serum IgG and IgM levels; after two years (96 weeks), FIG. 6): about 3%
- New or enlarging lesions/patient years (lesion years) (patients with RMS [2]; Asian): (1.00)
- Number of new or enlarging lesions (patients with RMS [2]; Asian): 44/44
- New or enlarging lesions/patient years (lesion years) (patients with RMS [2]; Rest of World): (0.84
- Number of new or enlarging lesions (patients with RMS [2]; Rest of World): 1185/1404
- Reduction of rate of new or enlarging T2 lesions compared with teriflunomide (patients with RMS [2]; overall population): 82.9%
- New or enlarging T2 lesions rate reduction (%) (patients with RMS [2]; Asian): 59.0/0.041* %
- New or enlarging T2 lesions rate reduction (%) (patients with RMS [2]; Rest of World): 83.3/<0.001* %
- Ofatumumab concentrations in Asian subjects and White subjects [3]: Comparable ofatumumab concentrations
- Race as a covariate in the population PK analysis [3]: not found to be a significant covariate
- Half-life at steady state ([3]; sc, 20 mg): approximately 16 days
- ARR (number of relapses/patient years) (patients with RMS [4]; Asian (race)): (0.084)
- Adjusted ARR (9559) (patients with RMS [4]; Asian (race)): 0.08 (0.03, 0.24)
- Number of relapses (confirmed) (patients with RMS [4]; Asian (race)): 4/47
- ARR (number of relapses/patient years) (patients with RMS [4]; Rest of World (race)): (0.122)
- Adjusted ARR (9559) (patients with RMS [4]; Rest of World (race)): 0.12 (0.10, 0.14)
- Number of relapses (confirmed) (patients with RMS [4]; Rest of World (race)): 181/1490
- Reduction of adjusted ARR compared with teriflunomide (patients with RMS [4]; overall population): 52.6%
- ARR rate reduction (%) (patients with RMS [4]; Asian (race)): 11.8/0.862%
- ARR rate reduction (%) (patients with RMS [4]; Rest of World (race)): 53.3/<0.001* %
- ARR rate reduction (%) (patients with RMS [4]; Rest of World (race), listed as ofatumumab): 53.3%
